Source: patent publication US9879243B2, “Culture medium for cell growth and transfection” (LIFE TECHNOLOGIES CORPORATION, priority 2001, dated 2018)

System: CHO cells
Assay: Effect of replacement compounds on the growth of CHO cells in CD CHO medium without transferrin, three passages
Type: cell-based, Chinese hamster
Conditions: 25 μM; third passage; control 5 μg/mL human holo-transferrin
Protocol: The ability of replacement compounds to support cellular growth in the absence of transferrin was evaluated using CHO cells maintained in CD CHO medium (Invitrogen Corporation, Carlsbad, Calif., the formulation of which is described in WO 98/08934). Stock cultures containing 5 μg/mL human holo-transferrin were prepared in CD CHO medium. For replacement compound evaluation, CHO cells were established in 125 mL shaker flasks at an initial viable seeding density of 1×10^5 cells/mL in a final volume of 20 mL. All cultures were maintained at 37° C. in humidified air containing 8% CO2. To eliminate transferrin carry-over effects, cells were subcultured at 4 day intervals for a total of three passages. Positive control cultures contained 5 μg/mL human holo-transferrin while negative control cultures were established in the absence of either transferrin or replacement compound. Replacement compound stocks were prepared at 0.1M-0.2M in ddH2O and solubilized when necessary using 5N NaOH or HCl. Iron complexes were established using 0.2M replacement compound and iron stocks mixed 1:1 (v/v) and incubated for 5-10 minutes at 22° C. All solutions containing replacement compounds were filter sterilized using a 0.22 μm Millex-GV filter prior to addition to transferrin and serum-free media.
Except where noted, replacement compounds were evaluated either alone or in combination with ferric chloride or ferrous sulfate at 25 μM, 50 μM and 100 μM. Values in the table represent the mean percentage of control growth for duplicate cultures determined at the third passage.
The ability of various replacement compounds to substitute for transferrin in the culture of CHO cells was determined. When added to the medium formulation un-complexed, the replacement compound is listed alone, when added as a complex with a transition metal, the source of the transition metal is listed with the metal binding compound.

Compound | mean percentage of control growth
Serine Hydroxamate•Ferric Chloride | 106 percentage of control growth
[Cl][Fe]([Cl])[Cl].[O-][n+]1cccc(O)c1 [3-Hydroxypyridine-N-Oxide•Ferric Chloride] | 77 percentage of control growth
4-Pyridoxic Acid•Ferric Chloride | 55 percentage of control growth
Sorbitol•Ferric Chloride | 100 percentage of control growth

Same assay, conditions: 50 μM; third passage

Compound | mean percentage of control growth
Serine Hydroxamate•Ferric Chloride | 121 percentage of control growth
[Cl][Fe]([Cl])[Cl].[O-][n+]1cccc(O)c1 [3-Hydroxypyridine-N-Oxide•Ferric Chloride] | 66 percentage of control growth
4-Pyridoxic Acid•Ferric Chloride | 63 percentage of control growth
Sorbitol•Ferric Chloride | 107 percentage of control growth

Same assay, conditions: 100 μM; third passage

Compound | mean percentage of control growth
Serine Hydroxamate•Ferric Chloride | 124 percentage of control growth
[Cl][Fe]([Cl])[Cl].[O-][n+]1cccc(O)c1 [3-Hydroxypyridine-N-Oxide•Ferric Chloride] | 101 percentage of control growth
4-Pyridoxic Acid•Ferric Chloride | 100 percentage of control growth
Sorbitol•Ferric Chloride | 112 percentage of control growth

System: Sp2/0 cells
Assay: Effect of replacement compounds on the growth of Sp2/0 cells in CD Hybridoma medium without transferrin, three passages
Type: cell-based
Conditions: 25 μM; third passage; control 5 μg/mL human holo-transferrin
Protocol: The ability of replacement compounds to support cellular growth in the absence of transferrin was evaluated using Sp2/0 cells maintained in CD Hybridoma medium (Invitrogen Corporation, Carlsbad, Calif.).
Stock cultures containing 5 μg/mL human holo-transferrin were prepared in CD Hybridoma medium. For replacement compound evaluation, Sp2/0 cells were established at an initial viable cell density of 0.5×10^5 cells/mL in stationary culture using 75 cm^2 tissue culture flasks in a final volume of 20 mL. All cultures were maintained at 37° C. in humidified air containing 8% CO2. To eliminate transferrin carry-over effects, cells were subcultured at the same seeding density at 4 day intervals for a total of three passages. Positive control cultures contained 5 μg/mL human holo-transferrin while negative control cultures were established in the absence of either transferrin or replacement compound. Replacement compound stocks were prepared at 0.1M-0.2M in ddH2O and solubilized when necessary using 5N NaOH or HCl. Iron complexes were established using 0.2M replacement compound and iron stocks mixed 1:1 (v/v) and incubated for 5-10 minutes at 22° C. All solutions containing replacement compounds were filter sterilized using a 0.22 μm Millex-GV filter prior to addition to transferrin and serum-free media.
Except where otherwise noted, replacement compounds were evaluated either alone or in combination with ferric chloride or ferrous sulfate at 25 μM, 50 μM and 100 μM. Values in the table represent the mean percentage of control growth for duplicate cultures determined at the third passage.
When added to the medium formulation un-complexed, the replacement compound is listed alone, when added as a complex with a transition metal, the source of the transition metal is listed with the replacement compound.

Compound | mean percentage of control growth
Serine Hydroxamate•Ferric Chloride | 46 percentage of control growth
[Cl][Fe]([Cl])[Cl].[O-][n+]1cccc(O)c1 [3-Hydroxypyridine-N-Oxide•Ferric Chloride] | 55 percentage of control growth
4-Pyridoxic Acid•Ferric Chloride | 40 percentage of control growth
Sorbitol•Ferric Chloride | 94 percentage of control growth

Same assay, conditions: 50 μM; third passage

Compound | mean percentage of control growth
Serine Hydroxamate•Ferric Chloride | 66 percentage of control growth
[Cl][Fe]([Cl])[Cl].[O-][n+]1cccc(O)c1 [3-Hydroxypyridine-N-Oxide•Ferric Chloride] | 54 percentage of control growth
4-Pyridoxic Acid•Ferric Chloride | 73 percentage of control growth
Sorbitol•Ferric Chloride | 55 percentage of control growth

Same assay, conditions: 100 μM; third passage

Compound | mean percentage of control growth
Serine Hydroxamate•Ferric Chloride | 62 percentage of control growth
[Cl][Fe]([Cl])[Cl].[O-][n+]1cccc(O)c1 [3-Hydroxypyridine-N-Oxide•Ferric Chloride] | 57 percentage of control growth
4-Pyridoxic Acid•Ferric Chloride | 76 percentage of control growth
Sorbitol•Ferric Chloride | 60 percentage of control growth

System: 293 cells
Assay: Effect of replacement compounds on the growth of 293 cells in 293 SFM without transferrin, three passages
Type: cell-based, human
Conditions: 25 μM; third passage; control 5 μg/mL human holo-transferrin; iron equimolar where combined
Protocol: Semi-confluent adherent cultures of 293 Cells (ATCC, CRL 1573) are readily adapted to suspension culture. The cells are first detached with a solution of Trypsin-EDTA (0.05% Trypsin, 0.53 mM Na4EDTA), and then resuspended in conventional medium supplemented with 10% FBS to inhibit the trypsin. The resuspended cells are centrifuged at 200×g for five minutes.
The initial seeding density of the 293 cells after conversion to suspension culture is 1×10^6 cells/mL. The cells are shaken on a rotary shaker at 150 rpm in a 37° C. incubator equilibrated with 8% CO2-92% air. […] Because 293 cells have a tendency to aggregate, the cells can be vortexed vigorously for approximately 45 seconds to obtain a predominantly single cell suspension at the time of passaging and counting. After several passages in suspension culture, the maximum achievable density can be determined.
For replacement compound evaluation, 293 cells were established in 125 mL shaker flasks at an initial viable seeding density of 2×10^5 cells/mL in a final volume of 20 mL. All cultures were maintained at 37° C. in humidified air containing 8% CO2. To eliminate transferrin carry-over effects, cells were subcultured at 4 day intervals for a total of three passages. At each subculturing, cells were seeded at a density of 2×10^5 cells/mL. Positive control cultures contained 5 μg/mL human holo-transferrin while negative control cultures were established in the absence of either transferrin or replacement compound. Replacement compound stocks were prepared at 0.1M-0.2M in ddH2O and solubilized when necessary using 5N NaOH or HCl. Iron complexes were established using 0.2 M replacement compound and iron stocks mixed 1:1 (v/v) and incubated for 5-10 minutes at 22° C. All solutions containing replacement compounds were filter sterilized using a 0.22 μm Millex-GV filter prior to addition to transferrin and serum-free media.
Except where noted, replacement compounds were evaluated either alone or in combination with ferric chloride or ferrous sulfate at 25 μM, 50 μM and 100 μM. When used in combination, the replacement compounds were used in equimolar concentration with iron ions. Values in Table 4 represent the mean percentage of control growth for duplicate cultures determined at the third passage.
When added to the medium formulation uncomplexed, the replacement compound is listed alone, when added as a complex with a transition metal, the source of the transition metal is listed with the replacement compound.

Compound | mean percentage of control growth
Serine Hydroxamate•Ferric Chloride | 68 percentage of control growth
[Cl][Fe]([Cl])[Cl].[O-][n+]1cccc(O)c1 [3-Hydroxypyridine-N-Oxide•Ferric Chloride] | 77 percentage of control growth
4-Pyridoxic Acid•Ferric Chloride | 109 percentage of control growth

Same assay, conditions: 50 μM; third passage; control 5 μg/mL human holo-transferrin

Compound | mean percentage of control growth
Serine Hydroxamate•Ferric Chloride | 65 percentage of control growth
[Cl][Fe]([Cl])[Cl].[O-][n+]1cccc(O)c1 [3-Hydroxypyridine-N-Oxide•Ferric Chloride] | 72 percentage of control growth
4-Pyridoxic Acid•Ferric Chloride | 85 percentage of control growth

Same assay, conditions: 100 μM; third passage; control 5 μg/mL human holo-transferrin

Compound | mean percentage of control growth
Serine Hydroxamate•Ferric Chloride | 51 percentage of control growth
[Cl][Fe]([Cl])[Cl].[O-][n+]1cccc(O)c1 [3-Hydroxypyridine-N-Oxide•Ferric Chloride] | 81 percentage of control growth
4-Pyridoxic Acid•Ferric Chloride | 99 percentage of control growth
